Reference: patent publication US20220213060A1, “Crystal Form of Quinazolinone Compound and Preparation Method Therefor” (Luoxin Healthcare Science and Technology Development …, priority 2019, published 2022)

Target: T1, PI3Kα (Homo sapiens, UniProt P42336)
T1 construct: purchased Millipore 14-602-K
Experiment: In vitro enzymatic activity test (ADP-Glo lipid kinase), PI3Kα wild type
Format: biochemical
Conditions: wild-type PI3Kα kinase; read-out: Wild type PI3Kα IC50
Experimental: The lipid kinase reaction was carried out in a suitable substrate and under ATP conditions, then the activity of the kinase was detected by ADP-Glo™ kit in two steps. Step 1: the kinase reaction was terminated, in which the residual ATP was completely removed and only ADP was retained; step 2: kinase detection reagent was added to convert ADP to ATP, accompanied by fluorescein/luciferase reaction. Finally, the fluorescence value output was converted into kinase activity.
Experimental Materials and Equipment:
2) Kit: ADP-Glo™ lipid kinase and PIP2:3PS kit (Promega #V1792)
The reagent kit contains: 1 mM PIP2:3PS, 10× lipid dilution buffer, 1 M magnesium chloride, 10 mM ATP, 10 mM ADP, ADP-Glo reagent, detection buffer and detection substrate.
3) Reaction plate: OptiPlate-384, white and transparent (PerkinElmer #6007299)
1) 10× reaction buffer: 500 mM HEPES, pH 7.5, 500 mM NaCl, […]; BSA: 10% stock solution, self-made
2) Final test system conditions: 1× reaction system: 50 mM of HEPES, 50 mM of NaCl, 3 mM of MgCl2, 0.01% BSA (freshly prepared on the day of experiment), 1% DMSO (v/v)+/−compound
3) Reaction system: 3 μL of mixture of enzyme and substrate (1:1)+2 μL of ATP/MgCl2 mixture+5 μL of ADP-Glo reagent+10 μL of detection reagent.
The specific experimental operations were as follows: […]
(16) Fluorescence values were measured on the Envision instrument.

T1 sequence (P42336 whole entry): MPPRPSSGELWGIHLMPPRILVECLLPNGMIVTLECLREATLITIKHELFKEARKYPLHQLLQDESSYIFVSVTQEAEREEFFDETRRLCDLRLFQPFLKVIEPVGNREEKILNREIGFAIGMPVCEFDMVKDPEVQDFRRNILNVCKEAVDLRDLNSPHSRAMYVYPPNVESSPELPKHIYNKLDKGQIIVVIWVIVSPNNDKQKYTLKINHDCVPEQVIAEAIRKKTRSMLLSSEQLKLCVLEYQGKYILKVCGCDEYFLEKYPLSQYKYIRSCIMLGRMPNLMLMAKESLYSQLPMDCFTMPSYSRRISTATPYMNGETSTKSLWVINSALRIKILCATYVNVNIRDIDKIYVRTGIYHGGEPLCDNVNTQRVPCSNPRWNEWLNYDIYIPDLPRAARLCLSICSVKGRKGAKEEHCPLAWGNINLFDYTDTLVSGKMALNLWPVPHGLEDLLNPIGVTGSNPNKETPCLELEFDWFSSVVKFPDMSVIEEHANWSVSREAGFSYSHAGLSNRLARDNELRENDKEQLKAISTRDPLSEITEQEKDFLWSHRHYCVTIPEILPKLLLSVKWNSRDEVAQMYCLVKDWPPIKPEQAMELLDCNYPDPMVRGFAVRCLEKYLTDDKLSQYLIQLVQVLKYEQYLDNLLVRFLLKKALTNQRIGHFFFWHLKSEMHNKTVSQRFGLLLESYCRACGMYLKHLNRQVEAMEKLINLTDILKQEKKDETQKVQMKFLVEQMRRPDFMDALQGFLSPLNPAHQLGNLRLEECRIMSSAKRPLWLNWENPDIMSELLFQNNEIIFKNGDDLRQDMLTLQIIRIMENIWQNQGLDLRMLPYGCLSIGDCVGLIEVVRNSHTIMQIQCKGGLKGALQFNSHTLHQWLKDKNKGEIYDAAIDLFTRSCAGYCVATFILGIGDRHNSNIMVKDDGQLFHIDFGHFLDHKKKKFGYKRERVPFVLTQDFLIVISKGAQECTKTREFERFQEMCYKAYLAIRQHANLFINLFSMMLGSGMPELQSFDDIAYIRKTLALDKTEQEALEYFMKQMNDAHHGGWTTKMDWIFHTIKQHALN
T1 sequence (P27986 whole entry partner): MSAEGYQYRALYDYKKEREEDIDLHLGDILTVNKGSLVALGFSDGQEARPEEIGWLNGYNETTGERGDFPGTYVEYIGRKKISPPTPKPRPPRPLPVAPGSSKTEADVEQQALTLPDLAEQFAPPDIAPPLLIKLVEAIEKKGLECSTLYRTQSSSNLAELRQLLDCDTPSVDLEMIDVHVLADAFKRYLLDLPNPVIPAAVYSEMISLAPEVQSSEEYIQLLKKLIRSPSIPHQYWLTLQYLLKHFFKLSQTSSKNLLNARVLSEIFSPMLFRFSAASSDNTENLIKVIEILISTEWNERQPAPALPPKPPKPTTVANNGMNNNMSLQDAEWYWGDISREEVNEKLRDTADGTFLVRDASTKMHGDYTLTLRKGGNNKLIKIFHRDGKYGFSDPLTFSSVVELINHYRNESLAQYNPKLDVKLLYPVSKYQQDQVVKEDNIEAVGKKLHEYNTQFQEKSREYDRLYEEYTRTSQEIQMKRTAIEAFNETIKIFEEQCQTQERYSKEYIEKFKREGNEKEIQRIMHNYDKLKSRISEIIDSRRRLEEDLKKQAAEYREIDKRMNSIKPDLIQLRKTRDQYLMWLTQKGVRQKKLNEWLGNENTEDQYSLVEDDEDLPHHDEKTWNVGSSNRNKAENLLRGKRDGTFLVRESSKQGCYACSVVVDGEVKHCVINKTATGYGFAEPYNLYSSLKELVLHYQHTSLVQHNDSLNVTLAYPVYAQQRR

CNC(=O)[C@H](C)Cn1cnc2ccc(-c3cnc(OC)c(NS(=O)(=O)c4ccc(F)cc4F)c3)cc2c1=O was tested, and the IC50 was 1.8 nM.
